Laboratory results as given in ChEMBL document CHEMBL1275533, “In vitro antibacterial activity of vertilmicin and its susceptibility to modifications by the recombinant AAC6'-APH2'' enzyme” (2008).
≈ marks a conversion by molar mass, not a printed value. Calls of active or inactive are those of the source. No cut-off for these calls is given here.

Key:
Escherichia coli [1] = assay: Antibacterial activity against non-gentamicin-resistant Escherichia coli clinical isolate after 18 hrs by agar dilution method; type: functional
Enterobacter cloacae [2] = assay: Antibacterial activity against non-gentamicin-resistant Enterobacter cloacae clinical isolate after 18 hrs by agar dilution method; type: functional
Klebsiella aerogenes = assay: Antibacterial activity against non-gentamicin-resistant Enterobacter aerogenes clinical isolate after 18 hrs by agar dilution method; type: functional
Proteus mirabilis [3] = assay: Antibacterial activity against non-gentamicin-resistant Proteus mirabilis clinical isolate after 18 hrs by agar dilution method; type: functional
Serratia marcescens [4] = assay: Antibacterial activity against non-gentamicin-resistant Serratia marcescens clinical isolate after 18 hrs by agar dilution method; type: functional
Morganella morganii [5] = assay: Antibacterial activity against non-gentamicin-resistant Morganella morganii clinical isolate after 18 hrs by agar dilution method; type: functional
Citrobacter freundii = assay: Antibacterial activity against non-gentamicin-resistant Citrobacter freundii clinical isolate after 18 hrs by agar dilution method; type: functional
Providencia rettgeri [6] = assay: Antibacterial activity against non-gentamicin-resistant Proteus rettgeri clinical isolate after 18 hrs by agar dilution method; type: functional
[7] = system: Acinetobacter calcoaceticus; assay: Antibacterial activity against non-gentamicin-resistant Acinetobacter calcoaceticus clinical isolate after 18 hrs by agar dilution method; type: functional
[8] = system: Haemophilus parainfluenzae; assay: Antibacterial activity against non-gentamicin-resistant Haemophilus parainfluenzae clinical isolate after 18 hrs by agar dilution method; type: functional
Staphylococcus aureus [9] = assay: Antibacterial activity against non-gentamicin-resistant Staphylococcus aureus clinical isolate after 18 hrs by agar dilution method; type: functional
[10] = system: Staphylococcus epidermidis; assay: Antibacterial activity against non-gentamicin-resistant Staphylococcus epidermidis clinical isolate after 18 hrs by agar dilution method; type: functional
Klebsiella pneumoniae [11] = assay: Antibacterial activity against non-gentamicin-resistant Klebsiella pneumoniae clinical isolate assessed as susceptible isolates after 18 hrs by agar dilution method; type: functional
Proteus mirabilis [12] = assay: Antibacterial activity against non-gentamicin-resistant Proteus mirabilis clinical isolate assessed as susceptible isolates after 18 hrs by agar dilution method; type: functional
Serratia marcescens [13] = assay: Antibacterial activity against non-gentamicin-resistant Serratia marcescens clinical isolate assessed as susceptible isolates after 18 hrs by agar dilution method; type: functional
Morganella morganii [14] = assay: Antibacterial activity against non-gentamicin-resistant Morganella morganii clinical isolate assessed as susceptible isolates after 18 hrs by agar dilution method; type: functional
Providencia rettgeri [15] = assay: Antibacterial activity against non-gentamicin-resistant Proteus rettgeri clinical isolate assessed as susceptible isolates after 18 hrs by agar dilution method; type: functional
[16] = system: Acinetobacter calcoaceticus; assay: Antibacterial activity against non-gentamicin-resistant Acinetobacter calcoaceticus clinical isolate assessed as susceptible isolates after 18 hrs by agar dilution method; type: functional
Pseudomonas aeruginosa = assay: Antibacterial activity against non-gentamicin-resistant Pseudomonas aeruginosa clinical isolate assessed as susceptible isolates after 18 hrs by agar dilution method; type: functional
Pseudomonas sp. [17] = assay: Antibacterial activity against non-gentamicin-resistant Pseudomonas spp. clinical isolate assessed as susceptible isolates after 18 hrs by agar dilution method; type: functional
[18] = system: Haemophilus parainfluenzae; assay: Antibacterial activity against non-gentamicin-resistant Haemophilus parainfluenzae clinical isolate assessed as susceptible isolates after 18 hrs by agar dilution method; type: functional, organism-based
Staphylococcus aureus [19] = assay: Antibacterial activity against non-gentamicin-resistant Staphylococcus aureus clinical isolate assessed as susceptible isolates after 18 hrs by agar dilution method; type: functional
[20] = system: Staphylococcus epidermidis; assay: Antibacterial activity against non-gentamicin-resistant Staphylococcus epidermidis clinical isolate assessed as susceptible isolates after 18 hrs by agar dilution method; type: functional
Escherichia coli [21] = assay: Antibacterial activity against gentamicin-resistant Escherichia coli clinical isolate after 18 hrs by agar dilution method; type: functional
Klebsiella pneumoniae [22] = assay: Antibacterial activity against gentamicin-resistant Klebsiella pneumoniae clinical isolate after 18 hrs by agar dilution method; type: functional
Enterobacter cloacae [23] = assay: Antibacterial activity against gentamicin-resistant Enterobacter cloacae clinical isolate after 18 hrs by agar dilution method; type: functional
Citrobacter koseri [24] = assay: Antibacterial activity against gentamicin-resistant Citrobacter diversus clinical isolate after 18 hrs by agar dilution method; type: functional
Serratia marcescens [25] = assay: Antibacterial activity against gentamicin-resistant Serratia marcescens clinical isolate after 18 hrs by agar dilution method; type: functional
Morganella morganii [26] = assay: Antibacterial activity against gentamicin-resistant Morganella morganii clinical isolate after 18 hrs by agar dilution method; type: functional
Providencia rettgeri [27] = assay: Antibacterial activity against gentamicin-resistant Proteus rettgeri clinical isolate after 18 hrs by agar dilution method; type: functional
[28] = system: Acinetobacter calcoaceticus; assay: Antibacterial activity against gentamicin-resistant Acinetobacter calcoaceticus clinical isolate after 18 hrs by agar dilution method; type: functional
Pseudomonas sp. [29] = assay: Antibacterial activity against gentamicin-resistant Pseudomonas spp. clinical isolate after 18 hrs by agar dilution method; type: functional
Staphylococcus aureus [30] = assay: Antibacterial activity against gentamicin-resistant Staphylococcus aureus clinical isolate after 18 hrs by agar dilution method; type: functional
[31] = system: Staphylococcus epidermidis; assay: Antibacterial activity against gentamicin-resistant Staphylococcus epidermidis clinical isolate after 18 hrs by agar dilution method; type: functional
Escherichia coli [32] = assay: Antibacterial activity against gentamicin-resistant Escherichia coli clinical isolate assessed as susceptible isolates after 18 hrs by agar dilution method; type: functional
Klebsiella pneumoniae [33] = assay: Antibacterial activity against gentamicin-resistant Klebsiella pneumoniae clinical isolate assessed as susceptible isolates after 18 hrs by agar dilution method; type: functional
Citrobacter koseri [34] = assay: Antibacterial activity against gentamicin-resistant Citrobacter diversus clinical isolate assessed as susceptible isolates after 18 hrs by agar dilution method; type: functional
Serratia marcescens [35] = assay: Antibacterial activity against gentamicin-resistant Serratia marcescens clinical isolate assessed as susceptible isolates after 18 hrs by agar dilution method; type: functional
Morganella morganii [36] = assay: Antibacterial activity against gentamicin-resistant Morganella morganii clinical isolate assessed as susceptible isolates after 18 hrs by agar dilution method; type: functional
Providencia rettgeri [37] = assay: Antibacterial activity against gentamicin-resistant Proteus rettgeri clinical isolate assessed as susceptible isolates after 18 hrs by agar dilution method; type: functional
[38] = system: Acinetobacter calcoaceticus; assay: Antibacterial activity against gentamicin-resistant Acinetobacter calcoaceticus clinical isolate assessed as susceptible isolates after 18 hrs by agar dilution method; type: functional
Pseudomonas sp. [39] = assay: Antibacterial activity against gentamicin-resistant Pseudomonas spp. clinical isolate assessed as susceptible isolates after 18 hrs by agar dilution method; type: functional
Staphylococcus aureus [40] = assay: Antibacterial activity against gentamicin-resistant Staphylococcus aureus clinical isolate assessed as susceptible isolates after 18 hrs by agar dilution method; type: functional
[41] = system: Staphylococcus epidermidis; assay: Antibacterial activity against gentamicin-resistant Staphylococcus epidermidis clinical isolate assessed as susceptible isolates after 18 hrs by agar dilution method; type: functional
Enterococcus faecalis = assay: Antibacterial activity against gentamicin-resistant Enterococcus faecalis clinical isolate assessed as susceptible isolates after 18 hrs by agar dilution method; type: functional, organism-based
[42] = system: Escherichia coli BL21(DE3); assay: Acetylation activity of AAC(6')-APH(2'') in Escherichia coli BL21(DE3) assessed as production of free pyridine-4-thiolate

CCN[C@@H]1C[C@H](N)[C@@H](O[C@H]2OC(CN)=CC[C@H]2N)[C@H](O)[C@H]1O[C@H]1OC[C@](C)(O)[C@H](NC)[C@H]1O [NETILMICIN]
MIC50 (Escherichia coli [1]): 0.5 µg/mL (≈ 1.05 µM) | MIC90 (Escherichia coli [1]): 0.5 µg/mL (≈ 1.05 µM) | MIC50 (Enterobacter cloacae [2]): 0.5 µg/mL (≈ 1.05 µM) | MIC90 (Enterobacter cloacae [2]): 2 µg/mL (≈ 4.21 µM) | MIC50 (Klebsiella aerogenes): 0.5 µg/mL (≈ 1.05 µM) | MIC90 (Klebsiella aerogenes): 1 µg/mL (≈ 2.1 µM) | MIC50 (Proteus mirabilis [3]): 1 µg/mL (≈ 2.1 µM) | MIC90 (Proteus mirabilis [3]): 2 µg/mL (≈ 4.21 µM) | MIC50 (Serratia marcescens [4]): 1 µg/mL (≈ 2.1 µM) | MIC90 (Serratia marcescens [4]): 4 µg/mL (≈ 8.41 µM) | MIC50 (Morganella morganii [5]): 1 µg/mL (≈ 2.1 µM) | MIC90 (Morganella morganii [5]): 2 µg/mL (≈ 4.21 µM) | MIC50 (Citrobacter freundii): 1 µg/mL (≈ 2.1 µM) | MIC90 (Citrobacter freundii): 16 µg/mL (≈ 33.6 µM) | MIC50 (Providencia rettgeri [6]): 2 µg/mL (≈ 4.21 µM) | MIC90 (Providencia rettgeri [6]): 8 µg/mL (≈ 16.8 µM) | MIC50 [7]: 1 µg/mL (≈ 2.1 µM) | MIC90 [7]: 16 µg/mL (≈ 33.6 µM) | MIC50 [8]: 1 µg/mL (≈ 2.1 µM) | MIC90 [8]: 2 µg/mL (≈ 4.21 µM) | MIC50 (Staphylococcus aureus [9]): 0.25 µg/mL (≈ 0.526 µM) | MIC90 (Staphylococcus aureus [9]): 16 µg/mL (≈ 33.6 µM) | MIC50 [10]: 0.25 µg/mL (≈ 0.526 µM) | MIC90 [10]: 1 µg/mL (≈ 2.1 µM) | Activity (Klebsiella pneumoniae [11]): 94% | Activity (Proteus mirabilis [12]): 98.4% | Activity (Serratia marcescens [13]): 96.3% | Activity (Morganella morganii [14]): 100% | Activity (Providencia rettgeri [15]): 92.3% | Activity [16]: 87.8% | Activity (Pseudomonas aeruginosa): 63.9% | Activity (Pseudomonas sp. [17]): 72.7% | Activity [18]: inactive | Activity (Staphylococcus aureus [19]): 88.3% | Activity [20]: 100% | MIC50 (Escherichia coli [21]): 8 µg/mL (≈ 16.8 µM) | MIC90 (Escherichia coli [21]): 64 µg/mL (≈ 135 µM) | MIC50 (Klebsiella pneumoniae [22]): 32 µg/mL (≈ 67.3 µM) | MIC90 (Klebsiella pneumoniae [22]): > 128 µg/mL | MIC50 (Enterobacter cloacae [23]): 128 µg/mL (≈ 269 µM) | MIC90 (Enterobacter cloacae [23]): > 128 µg/mL | MIC50 (Citrobacter koseri [24]): > 128 µg/mL | MIC90 (Citrobacter koseri [24]): > 128 µg/mL | MIC50 (Serratia marcescens [25]): > 128 µg/mL | MIC90 (Serratia marcescens [25]): > 128 µg/mL | MIC50 (Morganella morganii [26]): 8 µg/mL (≈ 16.8 µM) | MIC90 (Morganella morganii [26]): 16 µg/mL (≈ 33.6 µM) | MIC50 (Providencia rettgeri [27]): 16 µg/mL (≈ 33.6 µM) | MIC90 (Providencia rettgeri [27]): 128 µg/mL (≈ 269 µM) | MIC50 [28]: 128 µg/mL (≈ 269 µM) | MIC90 [28]: > 128 µg/mL | MIC50 (Pseudomonas sp. [29]): > 128 µg/mL | MIC90 (Pseudomonas sp. [29]): > 128 µg/mL | MIC50 (Staphylococcus aureus [30]): 16 µg/mL (≈ 33.6 µM) | MIC90 (Staphylococcus aureus [30]): 128 µg/mL (≈ 269 µM) | MIC50 [31]: 2 µg/mL (≈ 4.21 µM) | MIC90 [31]: 32 µg/mL (≈ 67.3 µM) | Activity (Escherichia coli [32]): 66.7% | Activity (Klebsiella pneumoniae [33]): 17.9% | Activity (Citrobacter koseri [34]): 7.1% | Activity (Serratia marcescens [35]): 10% | Activity (Morganella morganii [36]): 41.7% | Activity (Providencia rettgeri [37]): 40% | Activity [38]: 20% | Activity (Pseudomonas sp. [39]): 0% | Activity (Staphylococcus aureus [40]): 47.2% | Activity [41]: 84.6% | Activity (Enterococcus faecalis): inactive | Km [42]: 304 µM
